Laboratory results published in patent publication US20070149465A1, “COMPOSITIONS AND METHODS FOR PREVENTION AND TREATMENT OF CACHEXIA” (priority 2005, published 2007).

Tests used:
Type in all cases: physicochemical
[1] = Aqueous stability of roxithromycin (% Purity by HPLC); conditions: 2 mg/mL, 40° C.
Experimental: Roxithromycin stability was determined for 2 mg/mL [roxithromycin] at 5, 25, and 40° C. as a function of pH and buffer (citrate) concentration. Roxithromycin %Purity was determined by area normalization using a reverse-phase HPLC method that meets the requirements of the EP Monograph. Solution pH values were determined per USP <791>.

[2] = Stability of formoterol fumarate and roxithromycin co-formulated in oral solution; conditions: co-formulated 0.005 mg/mL formoterol fumarate + 2.0 mg/mL roxithromycin, pH 6.0, 20 mM citrate, 4.5% mannitol, 0.1% potassium sorbate
Experimental: Roxithromycin Potency was assayed by a reverse-phase HPLC method that meets the requirements of the European Pharmacopeia (EP) Monograph for roxithromycin.

[3] = Solution osmolality of roxithromycin citrate solutions; conditions: 25° C.
Experimental: The solutions were syringe-filtered and analyzed by HPLC for [roxithromycin]. Roxithromycin Potency was assayed by a reverse-phase HPLC method that meets the requirements of the European Pharmacopeia (EP) Monograph for roxithromycin. Solution pH values were determined per USP <791> and solution osmolality values were determined per USP <785>. Aqueous solubility limits were determined for roxithromycin as a function of buffer type (phosphate versus citrate), buffer concentration, pH, and added co-solvent (ethanol).

Roxithromycin % Purity By Area Normalization ([1]; citrate pH 5, 20 mM, 0.5 mo): 66% | Roxithromycin % Purity By Area Normalization ([1]; citrate pH 5, 20 mM, 0.9 mo): 60% | Roxithromycin % Purity By Area Normalization ([1]; citrate pH 5, 20 mM, 1.5 mo): 50% | Roxithromycin % Purity By Area Normalization ([1]; citrate pH 5, 20 mM, 2.6 mo): 36% | Roxithromycin % Purity By Area Normalization ([1]; citrate pH 5, 20 mM, 5.3 mo): 21% | Roxithromycin % Purity By Area Normalization ([1]; citrate pH 5, 50 mM, 0 mo): 92% | Roxithromycin % Purity By Area Normalization ([1]; citrate pH 5, 50 mM, 0.3 mo): 66% | Roxithromycin % Purity By Area Normalization ([1]; citrate pH 5, 50 mM, 0.5 mo): 55% | Roxithromycin % Purity By Area Normalization ([1]; citrate pH 5, 50 mM, 0.9 mo): 44% | Roxithromycin % Purity By Area Normalization ([1]; citrate pH 5, 50 mM, 1.5 mo): 28% | Roxithromycin % Purity By Area Normalization ([1]; citrate pH 5, 50 mM, 2.6 mo): 13% | Roxithromycin % Purity By Area Normalization ([1]; citrate pH 5, 50 mM, 5.3 mo): 3% | Roxithromycin % Purity By Area Normalization ([1]; citrate pH 5, 100 mM, 0 mo): 90% | Roxithromycin % Purity By Area Normalization ([1]; citrate pH 5, 100 mM, 0.3 mo): 60% | Roxithromycin % Purity By Area Normalization ([1]; citrate pH 5, 100 mM, 0.5 mo): 46% | Roxithromycin % Purity By Area Normalization ([1]; citrate pH 5, 100 mM, 0.9 mo): 31% | Roxithromycin % Purity By Area Normalization ([1]; citrate pH 5, 100 mM, 1.5 mo): 14% | Roxithromycin % Purity By Area Normalization ([1]; citrate pH 5, 100 mM, 2.6 mo): 4% | Roxithromycin % Purity By Area Normalization ([1]; citrate pH 6, 20 mM, 0 mo): 98% | Roxithromycin % Purity By Area Normalization ([1]; citrate pH 6, 20 mM, 0.3 mo): 95% | Roxithromycin % Purity By Area Normalization ([1]; citrate pH 6, 20 mM, 0.5 mo): 92% | Roxithromycin % Purity By Area Normalization ([1]; citrate pH 6, 20 mM, 0.9 mo): 89% | Roxithromycin % Purity By Area Normalization ([1]; citrate pH 6, 20 mM, 1.5 mo): 84% | Roxithromycin % Purity By Area Normalization ([1]; citrate pH 6, 20 mM, 2.6 mo): 79% | Roxithromycin % Purity By Area Normalization ([1]; citrate pH 6, 20 mM, 5.3 mo): 76% | Roxithromycin % Purity By Area Normalization ([1]; citrate pH 6, 50 mM, 0 mo): 98% | Roxithromycin % Purity By Area Normalization ([1]; citrate pH 6, 50 mM, 0.3 mo): 89% | Roxithromycin % Purity By Area Normalization ([1]; citrate pH 6, 50 mM, 0.5 mo): 82% | Roxithromycin % Purity By Area Normalization ([1]; citrate pH 6, 50 mM, 0.9 mo): 77% | Roxithromycin % Purity By Area Normalization ([1]; citrate pH 6, 50 mM, 1.5 mo): 71% | Roxithromycin % Purity By Area Normalization ([1]; citrate pH 6, 50 mM, 2.6 mo): 65% | Roxithromycin % Purity By Area Normalization ([1]; citrate pH 6, 50 mM, 5.3 mo): 61% | Roxithromycin % Purity By Area Normalization ([1]; citrate pH 6, 100 mM, 0 mo): 98% | Roxithromycin % Purity By Area Normalization ([1]; citrate pH 6, 100 mM, 0.3 mo): 85% | Roxithromycin % Purity By Area Normalization ([1]; citrate pH 6, 100 mM, 0.5 mo): 77% | Roxithromycin % Purity By Area Normalization ([1]; citrate pH 6, 100 mM, 0.9 mo): 72% | Roxithromycin % Purity By Area Normalization ([1]; citrate pH 6, 100 mM, 1.5 mo): 66% | Roxithromycin % Purity By Area Normalization ([1]; citrate pH 6, 100 mM, 2.6 mo): 58% | Roxithromycin % Purity By Area Normalization ([1]; citrate pH 6, 100 mM, 5.3 mo): 48% | Roxithromycin Potency ([2]; week 0, 5 ° C.): 1920 µg/mL | Roxithromycin Potency ([2]; week 0, 25 ° C.): 1920 µg/mL | Roxithromycin Potency ([2]; week 0, 40 ° C.): 1920 µg/mL | Roxithromycin Potency ([2]; week 2, 25 ° C.): 1740 µg/mL | Roxithromycin Potency ([2]; week 2, 40 ° C.): 1610 µg/mL | Roxithromycin Potency ([2]; week 4, 5 ° C.): 1920 µg/mL | Roxithromycin Potency ([2]; week 4, 25 ° C.): 1710 µg/mL | Roxithromycin Potency ([2]; week 4, 40 ° C.): 1470 µg/mL | Solution Osmolaltiy ([3]; 20 mM citrate, pH 4): 43 mOsm/kG | Solution Osmolaltiy ([3]; 20 mM citrate, pH 5): 47 mOsm/kG | Solution Osmolaltiy ([3]; 20 mM citrate, pH 6): 57 mOsm/kG | Solution Osmolaltiy ([3]; 20 mM citrate, pH 7): 60 mOsm/kG | Solution Osmolaltiy ([3]; 50 mM citrate, pH 4): 110 mOsm/kG | Solution Osmolaltiy ([3]; 50 mM citrate, pH 5): 124 mOsm/kG | Solution Osmolaltiy ([3]; 50 mM citrate, pH 6): 139 mOsm/kG | Solution Osmolaltiy ([3]; 50 mM citrate, pH 7): 138 mOsm/kG | Solution Osmolaltiy ([3]; 100 mM citrate, pH 4): 203 mOsm/kG | Solution Osmolaltiy ([3]; 100 mM citrate, pH 5): 243 mOsm/kG | Solution Osmolaltiy ([3]; 100 mM citrate, pH 6): 260 mOsm/kG | Solution Osmolaltiy ([3]; 100 mM citrate, pH 7): 271 mOsm/kG | Solution Osmolaltiy ([3]; 200 mM citrate, pH 4): 366 mOsm/kG | Solution Osmolaltiy ([3]; 200 mM citrate, pH 5): 462 mOsm/kG | Solution Osmolaltiy ([3]; 200 mM citrate, pH 6): 521 mOsm/kG | Solution Osmolaltiy ([3]; 200 mM citrate, pH 7): 532 mOsm/kG
SMILES: CC[C@H]1OC(=O)[C@H](C)[C@@H](O[C@H]2C[C@@](C)(OC)[C@@H](O)[C@H](C)O2)[C@H](C)[C@@H](O[C@@H]2O[C@H](C)C[C@H](N(C)C)[C@H]2O)[C@](C)(O)C[C@@H](C)/C(=N\OCOCCOC)[C@H](C)[C@@H](O)[C@]1(C)O [roxithromycin]
